Source: patent publication US7914768B2, “Stabiliser for radiopharmaceuticals” (GE Healthcare Limited, priority 2000, dated 2011)

Assay: Rcp of ^99mTc-HMPAO after addition of a single stabiliser, two step process (Example 1)
Assay type: physicochemical
Conditions: additive added 2 minutes post-radiolabelling; amount as in table; n = 3 (*n = 1)
Description: To each of ten vials each containing 0.5 mg of HMPAO and 4.0 μg of Sn^2+ (stannous), was added sodium pertechnetate (1.48 GBq in 5 ml of saline) to carry out the radiolabelling. To each of 9 of the ten reconstituted vials was individually added the compound shown in Table 1 at a time of 2 minutes post-radiolabelling. Nothing was added to the remaining vial. At 1 minute and 3 hours after the addition, an aliquot was taken from each vial and the Rcp measured by a combination of three chromatographic systems (stationary phase/developing solvent: silica gel/methyl ethyl ketone, silica gel/saline, filter paper/50% aqueous acetonitrile).

Structure (SMILES) | Rcp 1 min from addition (%) | Rcp 3 hours from addition (%)
Nc1ccc(C(=O)O)cc1 [4-Aminobenzoic acid, 4-aminobenzoic acid] | 80 ± 8% | 67 ± 5%
O=C1O[C@H]([C@@H](O)CO)C(O)=C1O [Ascorbic acid] | 83* % | 41* %
[Cl][Co][Cl] [Cobalt chloride] | 94 ± 3% | 89 ± 2%
O=C(NCCO)c1cc(O)ccc1O [Gentisic acid ethanolamide] | 61 ± 3% | 29 ± 13%
O=C(O)c1cc(O)ccc1O [Gentisic acid] | 87 ± 2% | 77 ± 3%
O=P(O)(O)CP(=O)(O)O [Methylene diphosphonic acid, methylenediphosphonic acid] | 79* % | 30* %
Nc1ccc(C(=O)[O-])cc1.[Na+] [Sodium4-amino-benzoate, sodium 4-aminobenzoate] | 69 ± 5% | 39 ± 11%
O=C1O[C@H]([C@@H](O)CO)C([O-])=C1O.[Na+] [Sodium ascorbate] | 90* % | 51* %
O=C(O)CCC(=O)O [Succinic acid] | 51* % | 14* %
